Results as given in ChEMBL document CHEMBL3507680, “University of Dundee, Gates Library screen for HepG2 cell viability”.

Experiment: Human HepG2 cell viability assay in 384 well format
Format: toxicity, cell-based
Parameters: dose 125 nL, time 70.5 hour; concentration not given beside the values
Details: HepG2 cells, read-out: Inhibition

Structure (SMILES) | cytotoxicity at 70.5 h [%]
CS(=O)(=O)NC(=O)c1cnc2c(cnn2C2CCCC2)c1 | -4.29
Cc1ccnc(C(NC(=O)c2oc(C)nc2C)C2CC2)n1 (centres undefined) | -3.47
CN(C)CCCNC(=O)c1ccnc(OCc2ccccc2)c1 | -1.38
CCn1cc(S(=O)(=O)NCC(OC)c2cccc(Cl)c2)cn1 (centres undefined) | -6.64
O=C(OC1CCC1)c1ncccc1C(F)(F)F | -3.86
Cc1csc(CCNC(=O)C2CCOC2)n1 (centres undefined) | -2.45
Cc1cnn(CCNCC(O)COc2cccc(C(F)(F)F)c2)c1 (centres undefined) | 0.0235
COc1ccc(CCNC(=O)C(C)Nc2cc(C)ccc2C)cc1 (centres undefined) | -8.81
O=C(c1sccc1C1CC1)N1CCN(c2nccs2)CC1 | 6.38
CC(NC(=O)CNS(C)(=O)=O)c1ccccc1Oc1ccccc1 (centres undefined) | -7.15
CCS(=O)(=O)CC(=O)NC(C)c1ccccc1Oc1ccccc1 (centres undefined) | 2.99
CC(C)(C)c1cnc(CN2CCC(CN3CCOCC3)CC2)o1 | 22.6
CC(C)(O)CN1CCN(C(=O)c2cccn2Cc2ccccc2)CC1 | -6.76
CC(NC(=O)CSCC(N)=O)c1ccccc1Oc1ccccc1 (centres undefined) | 16.5
CN(C)c1ccccc1CN1CCC(N2CCCC2=O)CC1 | 17.8
Cc1cc(F)cc2c(N3CCS(=O)(=O)CC3)c(C#N)cnc12 | 0.465
COc1cc2c(cc1CNC(=O)Cc1cc(C)on1)OC(C)C2 (centres undefined) | -8.66
CC(=O)Nc1ccc(CNc2cccc(OCCF)c2)cc1 | -5.76
COCc1nc(CNc2cc(C)on2)cs1 | -3.59
Cc1cc(NCc2csc(C)n2)no1 | -4.29

Structure (SMILES) | cytotoxicity at 70.5 h [%]
CC(C)OCCC(=O)N1CCN(CC(O)c2ccccc2)CC1 (centres undefined) | -1.62
O=C(c1ccc(-n2cccc2)c(F)c1)N1CCCN2CCCC2C1 (centres undefined) | 8.53
CCOc1cncc(N2CCOCC2)n1 | -7.42
CCc1nc(CN2CC(C(=O)OC)O[C@H](C)C2)cs1 (some centres undefined) | -8.81
CCc1nc2c(s1)C(N(C)C(=O)c1cc[nH]n1)CCC2 (centres undefined) | -10.2
CC(O)CN1CCN(C(=O)c2cccn2Cc2cccnc2)CC1 (centres undefined) | -11.4
Cc1ncsc1C(=O)NCCNC(=O)OC(C)(C)C | -2.69
O=C(Nc1ccc2c(ccn2CCN2CCOCC2)c1)c1ccncc1 | -1.62
CC(C)C1CCCN1CC(=O)NCc1ccc(OCC(N)=O)cc1 (centres undefined) | 2.47
NC(=O)CNC1(c2ccc(Br)cc2)CCOCC1 | 22.4
COC1CCN(CC(=O)NCc2ccc(OCC(N)=O)cc2)CC1 | 0.0627
Cc1nn(C)c(N2CCCN(C)CC2)c1CNC(=O)CC(C)(C)C | 3.8
CCC(CC)C(=O)NCc1c(C)nn(C)c1N1CCCN(C)CC1 | 22.5
Cc1nn(C)c(N2CCCN(C)CC2)c1CNC(=O)CC1CCCC1 | 0.191
COC(=O)C1CCCN1CC(=O)NCc1ccc(OCC(N)=O)cc1 (centres undefined) | 4.54
O=C(CNC1(c2ccc(Cl)cc2)CCOCC1)NC1CCCC1 | 1.78
O=C1CN(c2ccc(CNC(=O)Nc3nccs3)cc2)CCN1 | 1.2
Cc1nc(N2CCN(C(=O)CC3CCCC3)CC2)c2cnn(C)c2n1 | 0.786
CC(Nc1cccc2c1OCCO2)C(=O)Nc1ccc(Cl)cc1 (centres undefined) | 2.81
Cc1nn(C)c(Cl)c1C1CCCN1CC(=O)NC1CCCC1 (centres undefined) | 2.37

Structure (SMILES) | cytotoxicity at 70.5 h [%]
CCNC(=O)NCC1(CN2CCOCC2)CCCCC1 | 0.842
COC(=O)N1CCC(Nc2ccc(Cl)c(C#N)n2)C1 (centres undefined) | -2.14
Cc1nn(C)cc1C(=O)NCc1cc(N(C)C)nc2ccccc12 | -0.83
O=C(COC1CCCC1)NCCc1noc(-c2ccccn2)n1 | -5.96
CCN(C)C(=O)NCC1(CN2CCOCC2)CCCCC1 | -4.49
CCOCCC1(CNC(=O)c2ccsc2)CCC1 | -5.98
Cc1nn(C)c(Cl)c1C1CCCN1CC(=O)N1CCOCC1 (centres undefined) | 1.93
CC1CCC(NC(=O)CNC2(c3ccc(F)cc3)CCOCC2)CC1 (centres undefined) | -3.54
Cc1nn(C)c(C)c1CC(=O)N1CCCC(CNS(C)(=O)=O)C1 (centres undefined) | -0.898
CC(Cn1cccn1)C(=O)N1CCCN(Cc2cscn2)CC1 (centres undefined) | -0.68
O=C(c1ccoc1)N(Cc1ccccn1)C1CC1 | -14.2
COC(=O)c1cc(OC)ccc1NCC(=O)NCC(=O)N1CCCC1 | -17.6
NC(=O)C1CCN(CCc2ccc(NCc3cscn3)cc2)CC1 | -12.5
Cc1cc(CCCC(=O)NC2CCN(C)C2=O)c(C)s1 (centres undefined) | -9.64
CN(C)C(=O)C1CCCN1c1ccnc2ccsc12 (centres undefined) | -7.45
CC(NCCN1CCN(C(=O)C2CCCC2)CC1)c1ccccn1 (centres undefined) | -2.99
NCc1csc(CCc2ccccc2)n1 | -8.04
CC(c1cccc(O)c1)N(C)S(=O)(=O)c1cccnc1 (centres undefined) | 4.03
CN(C)C(=O)c1cc(S(=O)(=O)N2CCCC2Cn2ccnc2)cn1C (centres undefined) | 2.99
